Reference: ChEMBL document CHEMBL1129417, “Glucose transport-enhancing and hypoglycemic activity of 2-methyl-2-phenoxy-3-phenylpropanoic acids” (1996)

Key:
Mus musculus [1] = test: compound was tested in vivo for hypoglycemic activity expressed as Glucose lowering relative to positive control in 6-8 week old C57BL/6J ob/ob mouse at 10 uM dose.; format: functional
Mus musculus [2] = test: compound was tested in vivo for hypoglycemic activity expressed as Glucose lowering relative to positive control in 6-8 week old C57BL/6J ob/ob mouse at 5 uM dose.; format: functional
Rattus norvegicus [3] = species: Rattus norvegicus; test: Inhibition of gluconeogenesis in rat; format: functional
Mus musculus [4] = test: compound was tested in vivo for hypoglycemic activity expressed as Glucose lowering relative to positive control in 6-8 week old C57BL/6J ob/ob mouse at 1 uM dose.; format: functional
3T3-L1 [5] = test: compound was evaluated for their acute effects in vitro by measuring 2-Deoxyglucose (2DG) uptake in vehicle treated 3T3-L1 adipocytes at 100 uM dose.; format: functional
Rattus norvegicus [6] = species: Rattus norvegicus; test: Percentage inhibition of Glucagon stimulated Gluconeogenesis in Isolated Rat Hepatocytes in vitro; format: functional, Hepatocyte
Mus musculus [7] = test: compound was tested in vivo for hypoglycemic activity in 6-8 week old C57BL/6J ob/ob mouse at 25 mg/kg; format: functional
Rattus norvegicus [8] = species: Rattus norvegicus; test: Compound was tested for inhibition of gluconeogenesis; format: functional; conditions: Rattus norvegicus; read-out: ED50
Rattus norvegicus [9] = species: Rattus norvegicus; test: Percentage inhibition of basal stimulated Gluconeogenesis in Isolated Rat Hepatocytes in vitro; format: functional, Hepatocyte
Mus musculus [10] = test: compound was tested in vivo for hypoglycemic activity in 6-8 week old C57BL/6J ob/ob mouse at 50 mg/kg; format: functional
L6 [11] = test: compound was evaluated for their acute effects in vitro by measuring 2-Deoxyglucose (2DG) uptake in vehicle treated L6 […] at 60 uM dose.; format: functional
Mus musculus [12] = test: In vivo hypoglycemic activity expressed as glucose lowering relative to positive control in 6-8 week old C57BL/6J ob/ob mouse at 10 mg/kg; format: functional
Mus musculus [13] = test: In vivo hypoglycemic activity expressed as glucose lowering relative to positive control in 6-8 week old C57BL/6J ob/ob mouse at 5 mg/kg.; format: functional
3T3-L1 [14] = test: In vitro measurements 2-Deoxyglucose (2DG) uptake in vehicle treated 3T3-L1 adipocytes at 100 uM dose.; format: functional
Mus musculus [15] = test: Compound was tested in vivo for hypoglycemic activity expressed as Glucose lowering relative to positive control in 6-8 week old C57BL/6J ob/ob mouse at 50 mg/kg; format: functional
3T3-L1 [16] = test: compound was evaluated for their acute effects in vitro by measuring 2-Deoxyglucose (2DG) uptake in vehicle treated 3T3-L1 adipocytes at concentration of 10 micro M; format: functional
Mus musculus [17] = test: In vivo hypoglycemic activity expressed as glucose lowering relative to positive control in 6-8 week old C57BL/6J ob/ob mouse at 1 mg/kg.; format: functional
Mus musculus [18] = test: compound was tested in vivo for hypoglycemic activity expressed as Glucose lowering relative to positive control in 6-8 week old C57BL/6J ob/ob mouse at 0.5 mg/kg; format: functional
3T3-L1 [19] = test: compound was evaluated for their acute effects in vitro by measuring 2-Deoxyglucose (2DG) uptake in vehicle treated 3T3-L1 adipocytes at concentration of 30 micro M; format: functional
Mus musculus [20] = test: compound was tested in vivo for hypoglycemic activity in 6-8 week old C57BL/6J ob/ob mouse at 5 mg/kg; format: functional
Mus musculus [21] = test: compound was tested in vivo for hypoglycemic activity expressed as Glucose lowering relative to positive control in 6-8 week old C57BL/6J ob/ob mouse at 0.1 mg/kg; format: functional
3T3-L1 [22] = test: compound was evaluated for their acute effects in vitro by measuring 2-Deoxyglucose (2DG) uptake in vehicle treated 3T3-L1 adipocytes at concentration of 3 micro M; format: functional
3T3-L1 [23] = test: In vitro measurements of 2-Deoxyglucose (2DG) uptake in vehicle treated 3T3-L1 adipocytes at 60 uM dose.; format: functional
Mus musculus [24] = test: compound was tested in vivo for hypoglycemic activity expressed as Glucose lowering relative to positive control in 6-8 week old C57BL/6J ob/ob mouse at 50 mg/kg; format: functional
Mus musculus [25] = test: compound was tested in vivo for hypoglycemic activity expressed as Glucose lowering relative to positive control in 6-8 week old C57BL/6J ob/ob mouse at 5 mg/kg; format: functional
3T3-L1 [26] = test: compound was evaluated for their acute effects in vitro by measuring 2-Deoxyglucose (2DG) uptake in vehicle treated 3T3-L1 adipocytes at 10 uM dose.; format: functional
Mus musculus [27] = test: compound was tested in vivo for hypoglycemic activity expressed as Glucose lowering relative to positive control in 6-8 week old C57BL/6J ob/ob mouse at 2.5 mg/kg; format: functional
Mus musculus [28] = test: compound was tested in vivo for hypoglycemic activity in 6-8 week old C57BL/6J ob/ob mouse; format: functional
Mus musculus [29] = test: compound was tested in vivo for hypoglycemic activity expressed as Glucose lowering relative to positive control in 6-8 week old C57BL/6J ob/ob mouse; format: functional
3T3-L1 [30] = test: Acute effects in vitro by measuring 2-deoxyglucose (2DG) uptake in vehicle treated 3T3-L1 adipocytes at 30 uM dose.; format: functional
L6 [31] = test: compound was evaluated for their acute effects in vitro by measuring 2-Deoxyglucose (2DG) uptake in vehicle treated L6 […] at 100 uM dose.; format: functional
L6 [32] = test: compound was evaluated for their acute effects in vitro by measuring 2-Deoxyglucose (2DG) uptake in vehicle treated L6 […] at 30 uM dose.; format: functional
3T3-L1 [33] = test: In vitro by measurements of 2-Deoxyglucose (2DG) uptake in vehicle treated 3T3-L1 adipocytes at 3 uM dose.; format: functional
Mus musculus [34] = test: compound was tested in vivo for hypoglycemic activity expressed as Glucose lowering relative to positive control in 6-8 week old C57BL/6J ob/ob mouse at 25 mg/kg; format: functional
3T3-L1 [35] = test: Acute effects in vitro by measuring 2-deoxyglucose (2DG) uptake in vehicle treated 3T3-L1 adipocytes at 10 uM dose.; format: functional
Mus musculus [36] = test: compound was tested in vivo for hypoglycemic activity in 6-8 week old C57BL/6J ob/ob mouse at 10 mg/kg; format: functional
[37] = Rattus norvegicus, read-out: ED50

## CC(C)c1ccc(OC(C)(Cc2cccc(Cl)c2)C(=O)[O-])cc1.[Na+] (configuration not stated)
Mus musculus [1]
  Hypoglycemic activity: 101%
Mus musculus [2]
  Hypoglycemic activity: 32%
Rattus norvegicus [3]; [37]
  ED50: 5 mg/kg
Mus musculus [4]
  Hypoglycemic activity: 47%

## C1CCC(NC2CCCCC2)CC1.CC(C)c1ccc(OC(Cc2cccc(F)c2)C(=O)O)cc1 (configuration not stated)
3T3-L1 [5]
  Basal uptake: 111%
Rattus norvegicus [6]
  Inhibition: 3%
Mus musculus [7]
  Hypoglycemic activity: 65%
Rattus norvegicus [8]
  ED50: < 25 mg/kg
Rattus norvegicus [9]
  Inhibition: 38%
Mus musculus [10]
  Hypoglycemic activity: 100%

## CC(C)c1ccc(OC(Cc2ccc(C(F)(F)F)cc2)C(=O)O)cc1 (configuration not stated)
L6 [11]
  Basal uptake: 104%
Mus musculus [12]
  Hypoglycemic activity: 42%
Mus musculus [13]
  Hypoglycemic activity: 30%
Rattus norvegicus [3]; [37]
  ED50: 10 mg/kg
3T3-L1 [14]
  Basal uptake: 605%
Mus musculus [15]
  Hypoglycemic activity: 74%

## CCc1ccc(CC(C)(Oc2ccc(C(C)C)cc2)C(=O)[O-])cc1.[Na+] (configuration not stated)
3T3-L1 [16]
  Basal uptake: 108%
Mus musculus [12]
  Hypoglycemic activity: 119%
Mus musculus [17]
  Hypoglycemic activity: 86%
Mus musculus [18]
  Hypoglycemic activity: 76%
3T3-L1 [19]
  Basal uptake: 216%
Mus musculus [20]
  Glucose lowering relative to positive control: 109%
Mus musculus [21]
  Hypoglycemic activity: 55%
Rattus norvegicus [3]; [37]
  ED50: 0.1 mg/kg
3T3-L1 [22]
  Basal uptake: 94%
3T3-L1 [23]
  Basal uptake: 109%

## CC(C)c1ccc(OC(CCCCCc2ccc(Cl)cc2)C(=O)[O-])cc1.[Na+] (configuration not stated)
L6 [11]
  Basal uptake: 44%
Mus musculus [12]
  Hypoglycemic activity: 32%
Rattus norvegicus [3]; [37]
  ED50: 10 mg/kg
Mus musculus [24]
  Hypoglycemic activity: 200%
Mus musculus [25]
  Hypoglycemic activity: 35%
3T3-L1 [26]
  Basal uptake: 180%

## CC(C)c1ccc(OC(C)(Cc2ccc(Cl)cc2)C(=O)O)cc1 (stereo in doubt; 27)
Mus musculus [17]; 1 mg/kg
  Hypoglycemic activity: 36%
Mus musculus [13]; 5 mg/kg
  Hypoglycemic activity: 65%
Mus musculus [27]
  Hypoglycemic activity: 79%
Rattus norvegicus [3]
  ED50: 1 mg/kg
3T3-L1 [14]
  Basal uptake: 214%

## Cc1ccc(CC(Oc2ccc(C(C)C)cc2)C(=O)O)cc1 (configuration not stated)
Mus musculus [28]
  Glucose lowering ob/ob dose: 50 mg/kg
Rattus norvegicus [3]; [37]
  ED50: < 50 mg/kg
3T3-L1 [14]
  Basal uptake: 147%
Mus musculus [29]
  Hypoglycemic activity: 113%

## Cc1ccc(S(=O)(=O)C(CCCCCc2ccc(Cl)cc2)C(=O)O)cc1 (configuration not stated)
L6 [11]
  Basal uptake: 124%
Mus musculus [12]
  Hypoglycemic activity: 22%
3T3-L1 [30]
  Basal uptake: 100%
L6 [31]
  Basal uptake: 134%
Rattus norvegicus [3]; [37]
  ED50: 25 mg/kg
Mus musculus [24]
  Hypoglycemic activity: 71%
L6 [32]
  Basal uptake: 88%
3T3-L1 [33]
  Basal uptake: 114%
3T3-L1 [14]
  Basal uptake: 250%
Mus musculus [34]
  Hypoglycemic activity: 60%
3T3-L1 [35]
  Basal uptake: 93%

## C1CCC(NC2CCCCC2)CC1.CC(C)c1ccc(OC(Cc2cccc(C(F)(F)F)c2)C(=O)O)cc1 (configuration not stated)
3T3-L1 [5]
  Basal uptake: 284%
Mus musculus [7]
  Hypoglycemic activity: 64%
Mus musculus [36]
  Hypoglycemic activity: <0%
Rattus norvegicus [8]
  ED50: 25 mg/kg
Mus musculus [10]
  Hypoglycemic activity: 76%
